Experimental data as given in patent publication US8357694B2, “Substituted 5,6-dihydro-6-phenylbenzo[F]isoquinolin-2-amine compounds” (ArQule, Inc., priority 2008, dated 2013).
Where a name gives a salt, the structure may show the parent alone.

melting point [°C] | SMILES
248 to 250 | COCCN1CCN(CCc2ccc(Nc3ncc4c(n3)-c3ccccc3[C@H](c3ccc(Cl)c(Cl)c3)C4)cc2)CC1 (as salt: hydrochloride) [Example 115, (S)-6-(3,4-dichlorophenyl)-N-(4-(2-(4-(2-methoxyethyl)piperazin-1-yl)ethyl)phenyl)-5,6-dihydrobenzo[h]quinazolin-2-amine hydrochloride]
182 to 186 | CN1CCN(CCc2cccc(Nc3ncc4c(n3)-c3ccccc3[C@H](c3ccccc3F)C4)c2)CC1 (as salt: hydrochloride) [Example 161, (R)-6-(2-fluorophenyl)-N-(3-(2-(4-methylpiperazin-1-yl)ethyl)phenyl)-5,6-dihydrobenzo[h]quinazolin-2-amine hydrochloride]
148 to 150 | COCCN1CCN(CCc2cccc(Nc3ncc4c(n3)-c3ccccc3[C@@H](c3ccccc3F)C4)c2)CC1 (as salt: hydrochloride) [Example 164, (S)-6-(2-fluorophenyl)-N-(3-(2-(4-(2-methoxyethyl)piperazin-1-yl)ethyl)phenyl)-5,6-dihydrobenzo[h]quinazolin-2-amine]
165 to 169 | Clc1ccc([C@@H]2Cc3cnc(Nc4cccc(CCN5CCCCC5)c4)nc3-c3ccccc32)cc1Cl (as salt: hydrochloride) [Example 167, (S)-6-(3,4-dichlorophenyl)-N-(3-(2-(piperidin-1-yl)ethyl)phenyl)-5,6-dihydrobenzo[h]quinazolin-2-amine hydrochloride]
162 to 166 | CCCCN(C)CCc1cccc(Nc2ncc3c(n2)-c2ccccc2[C@H](c2ccc(Cl)c(Cl)c2)C3)c1 (as salt: hydrochloride) [Example 168, (S)—N-(3-(2-(butyl(methyl)amino)ethyl)phenyl)-6-(3,4-dichlorophenyl)-5,6-dihydrobenzo[h]quinazolin-2-amine hydrochloride]
125 to 130 | CCCCN(C)CCc1cc(Nc2ncc3c(n2)-c2ccccc2[C@H](c2ccccc2F)C3)ccc1F (as salt: hydrochloride) [Example 172, (R)—N-(3-(2-(butyl(methyl)amino)ethyl)-4-fluorophenyl)-6-(2-fluorophenyl)-5,6-dihydrobenzo[h]quinazolin-2-amine hydrochloride salt]
131 to 132 | COCCNCCc1cc(Nc2ncc3c(n2)-c2ccccc2[C@H](c2ccccc2F)C3)ccc1F (as salt: hydrochloride) [Example 173, (R)—N-(4-fluoro-3-(2-(2-methoxyethylamino)ethyl)phenyl)-6-(2-fluorophenyl)-5,6-dihydrobenzo[h]quinazolin-2-amine hydrochloride salt]
158 to 163 | COCCNCc1cccc(Nc2ncc3c(n2)-c2ccccc2[C@H](c2ccccc2F)C3)c1 (as salt: hydrochloride) [Example 178, (R)-6-(2-fluorophenyl)-N-(3-((2-methoxyethylamino)methyl)phenyl)-5,6-dihydrobenzo[h]quinazolin-2-amine hydrochloride]
173 to 178 | COCCN1CCN(Cc2cccc(Nc3ncc4c(n3)-c3ccccc3[C@H](c3ccccc3F)C4)c2)CC1 (as salt: hydrochloride) [Example 179, (R)-6-(2-fluorophenyl)-N-(3-((4-(2-methoxyethyl)piperazin-1-yl)methyl)phenyl)-5,6-dihydrobenzo[h]quinazolin-2-amine hydrochloride]
120 to 122 | CN(C)CCCNc1ncc2c(n1)-c1ccccc1C(c1cccc(Br)c1)C2 (stereo not drawn) [Example 5, N^1-(6-(3-bromophenyl)-5,6-dihydrobenzo[h]quinazolin-2-yl)-N^3,N^3-dimethylpropane-1,3-diamine]
110 to 114 | CN(C)CCCNc1ncc2c(n1)-c1ccccc1C(c1ccc(Cl)c(Cl)c1)C2 (stereo not drawn) [Example 11, N^1-(6-(3,4-dichlorophenyl)-5,6-dihydrobenzo[h]quinazolin-2-yl)-N^3,N^3-dimethylpropane-1,3-diamine]
59 to 62 | CN(C)CCCNc1ncc2c(n1)-c1ccccc1[C@H](c1ccc(Cl)c(Cl)c1)C2 [Example 13, (S)—N^1-(6-(3,4-dichlorophenyl)-5,6-dihydrobenzo[h]quinazolin-2-yl)-N^3,N^3-dimethylpropane-1,3-diamine]

Second part, the molecule before the results:

SMILES | melting point [°C]
CN1CCN(CCc2ccc(Nc3ncc4c(n3)-c3ccccc3[C@H](c3ccc(Cl)c(Cl)c3)C4)cc2)CC1 (as salt: hydrochloride) [Example 114, (S)-6-(3,4-dichlorophenyl)-N-(4-(2-(4-methylpiperazin-1-yl)ethyl)phenyl)-5,6-dihydrobenzo[h]quinazolin-2-amine hydrochloride] | 236 to 238
Fc1ccccc1[C@@H]1Cc2cnc(Nc3cccc(CCN4CCNCC4)c3)nc2-c2ccccc21 (as salt: hydrochloride) [Example 160, (R)-6-(2-fluorophenyl)-N-(3-(2-(piperazin-1-yl)ethyl)phenyl)-5,6-dihydrobenzo[h]quinazolin-2-amine hydrochloride] | 193 to 199
CCCCNCCc1cc(Nc2ncc3c(n2)-c2ccccc2[C@H](c2ccccc2F)C3)ccc1F (as salt: hydrochloride) [Example 171, (R)—N-(3-(2-(butylamino)ethyl)-4-fluorophenyl)-6-(2-fluorophenyl)-5,6-dihydrobenzo[h]quinazolin-2-amine hydrochloride salt] | 180 to 185
CN1CCN(CCc2cc(Nc3ncc4c(n3)-c3ccccc3[C@H](c3ccccc3F)C4)ccc2F)CC1 (as salt: hydrochloride) [Example 174, (R)—N-(4-fluoro-3-(2-(4-methylpiperazin-1-yl)ethyl)phenyl)-6-(2-fluorophenyl)-5,6-dihydrobenzo[h]quinazolin-2-amine hydrochloride salt] | 225 to 229
COCCN1CCN(CCc2cc(Nc3ncc4c(n3)-c3ccccc3[C@H](c3ccccc3F)C4)ccc2F)CC1 (as salt: hydrochloride) [Example 175, (R)—N-(4-fluoro-3-(2-(4-(2-methoxyethyl)piperazin-1-yl)ethyl)phenyl)-6-(2-fluorophenyl)-5,6-dihydrobenzo[h]quinazolin-2-amine hydrochloride salt] | 199 to 201
CN(C)CCCCNc1ncc2c(n1)-c1ccccc1C(c1cccc(Br)c1)C2 (stereo not drawn) [Example 6, N^1-(6-(3-bromophenyl)-5,6-dihydrobenzo[h]quinazolin-2-yl)-N^4,N^4-dimethylbutane-1,4-diamine] | 115 to 117
OCCc1ccc(Nc2ncc3c(n2)-c2ccccc2C(c2cccc(Br)c2)C3)cc1 (stereo not drawn) [Example 7, 2-(4-(6-(3-bromophenyl)-5,6-dihydrobenzo[h]quinazolin-2-ylamino)phenyl)ethanol] | 88 to 90
CN(C)CCCNc1ncc2c(n1)-c1ccccc1[C@@H](c1ccc(Cl)c(Cl)c1)C2 [Example 12, (R)—N^1-(6-(3,4-dichlorophenyl)-5,6-dihydrobenzo[h]quinazolin-2-yl)-N^3,N^3-dimethylpropane-1,3-diamine] | 59 to 62
Clc1ccc([C@@H]2Cc3cnc(Nc4ccccc4)nc3-c3ccccc32)cc1Cl [Example 15, (S)-6-(3,4-dichlorophenyl)-N-phenyl-5,6-dihydrobenzo[h]quinazolin-2-amine] | 159
